The text below walks through data of publication PMC4031293 (Molecular pharmaceutics, 2014).

What is called Kp is tissue or fluid exposure divided by exposure in the circulation.

Data set [1] concerns the target P-gp (Rattus norvegicus, UniProt Q6PSM0). Nature of the data set: in vivo. Conditions: Sprague Dawley; for Kp at 2 h: absence of CsA, 120 min; for Kp at 120 min: with maximum P-gp inhibition by CsA.
The conditions of data set [2]: cited from earlier work.
Data set [3] concerns P-gp. The settings on record: cited from earlier work; for increase in brain distribution in mdr1a/b(−/−) vs. wild-type mice: 2, 3.
The next data set concerns BCRP. The settings on record: cited from earlier work.
The target in data set [4] is T1, P-gp at the rat BBB (Rattus norvegicus, UniProt Q6PSM0). The settings on record: from brain:plasma ratios 0.044 and 0.93.
T1 sequence (Q6PSM0 1-1272): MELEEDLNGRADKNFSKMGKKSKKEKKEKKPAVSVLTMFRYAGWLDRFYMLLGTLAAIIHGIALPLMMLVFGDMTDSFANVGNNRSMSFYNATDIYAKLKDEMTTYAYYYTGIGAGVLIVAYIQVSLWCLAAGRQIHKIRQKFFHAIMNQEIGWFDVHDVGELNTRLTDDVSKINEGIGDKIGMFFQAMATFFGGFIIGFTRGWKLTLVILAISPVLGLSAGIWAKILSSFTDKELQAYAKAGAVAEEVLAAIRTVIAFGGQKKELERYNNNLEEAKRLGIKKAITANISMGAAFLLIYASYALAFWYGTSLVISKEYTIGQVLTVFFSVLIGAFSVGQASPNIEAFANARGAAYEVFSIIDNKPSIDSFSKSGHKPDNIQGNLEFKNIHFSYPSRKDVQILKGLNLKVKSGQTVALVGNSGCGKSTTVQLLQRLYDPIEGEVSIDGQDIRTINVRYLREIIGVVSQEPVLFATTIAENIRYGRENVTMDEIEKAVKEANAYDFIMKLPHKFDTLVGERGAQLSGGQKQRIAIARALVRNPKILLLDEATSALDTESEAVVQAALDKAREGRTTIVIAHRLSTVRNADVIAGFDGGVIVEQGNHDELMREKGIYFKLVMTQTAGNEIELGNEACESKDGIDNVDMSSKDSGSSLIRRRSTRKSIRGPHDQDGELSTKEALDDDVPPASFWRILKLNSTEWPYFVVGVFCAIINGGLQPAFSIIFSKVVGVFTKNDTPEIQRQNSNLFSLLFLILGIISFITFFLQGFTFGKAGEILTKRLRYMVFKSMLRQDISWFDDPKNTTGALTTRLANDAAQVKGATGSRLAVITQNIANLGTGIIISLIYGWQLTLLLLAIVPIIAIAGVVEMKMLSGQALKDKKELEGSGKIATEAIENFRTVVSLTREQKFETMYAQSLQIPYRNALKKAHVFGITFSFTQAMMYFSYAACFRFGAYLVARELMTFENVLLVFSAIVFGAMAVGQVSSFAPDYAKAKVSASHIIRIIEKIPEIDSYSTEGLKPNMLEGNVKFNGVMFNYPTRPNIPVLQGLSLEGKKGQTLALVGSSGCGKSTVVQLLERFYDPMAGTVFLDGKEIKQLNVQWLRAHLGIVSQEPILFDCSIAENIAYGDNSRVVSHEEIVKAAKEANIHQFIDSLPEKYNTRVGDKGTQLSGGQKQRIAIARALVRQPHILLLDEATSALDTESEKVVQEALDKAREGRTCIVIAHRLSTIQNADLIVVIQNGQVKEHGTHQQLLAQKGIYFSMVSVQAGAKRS
The test system of data set [5] is P-gp at the human BBB. The settings on record: for predicted increase in NFV human brain:plasma concentration ratio: prediction based on the rat study alone.
A short description of data set [6]: pseudo steady-state blood CsA and plasma NFV concentrations in rats. Format: in vivo, rat.
For data set [7], the system named is intracerebral human glioblastoma. The settings on record: co-administration with paclitaxel compared to paclitaxel alone; cited from earlier work.
Data set [8] concerns P-gp at the human BBB. The settings on record: tariquidar 6 mg/kg; cited from earlier work.
The target in data set [9] is T1, P-gp at the rat BBB. The settings on record: 5.6 µM CsA blood concentration; 18; cited from earlier work.
The subject of data set [10] is P-gp. The settings on record: P-gp chemically inhibited, mouse or rat; 4; 5; cited from earlier work.

Entries after “also recorded” stand apart in the source; their conditions may differ. Counter-ions that a name gives are not always drawn. Like-named read-outs stand apart in the source and are kept apart here. Where only a bound is given, the exact number is not on record here.

Sequence of P-gp (Rattus norvegicus, UniProt Q6PSM0) (Q6PSM0 1-1272): as above

For `Cc1c(O)cccc1C(=O)N[C@@H](CSc1ccccc1)[C@H](O)CN1C[C@H]2CCCC[C@H]2C[C@H]1C(=O)NC(C)(C)C` [NFV, Nelfinavir mesylate], the Kp at 2 h on P-gp [1] (NFV brain:plasma concentration ratio corrected for vascular contamination) came to 0.014 ± 0.01; on P-gp [1] (NFV brain:plasma concentration ratio, not corrected for vascular contamination), 0.044 ± 0.01. In addition, the Kp at 120 min was found to be 0.9 ± 0.16 at P-gp [1] (NFV brain:plasma ratio after vascular-content correction) and 0.93 ± 0.16 on P-gp [1] (NFV brain:plasma ratio, uncorrected for vascular content). The “blood: plasma ratio” value in data set [2] is given as 0.877. Further, the “increase in brain distribution in mdr1a/b(−/−) vs. wild-type mice” value with P-gp [3] is given as 3400%. Further, in the data set on P-gp [3] (5), the “increase in brain:blood concentration ratio in mdr1a/b(−/−) vs. wild-type mice” value was 3400%. For the same compound, the “substrate of BCRP” value in the data set on BCRP is given as “not a substrate”. In addition, at P-gp at the rat BBB [4], the “ft(P-gp), not corrected for vascular content” value was determined as 0.95. The “predicted increase in NFV human brain:plasma concentration ratio” value with P-gp at the human BBB [5] (CsA blood 1.5 µM) is listed as 236%; in the data set with P-gp at the human BBB [5] (CsA blood 2.8 µM) it was 589%. In addition, the “predicted increase in the NFV brain:plasma concentration ratio / distribution into the human brain” value with P-gp at the human BBB [5] (CsA blood 1.5 µM, rat data and in vitro LLCPK1-MDR1 data) is reported as 241%. In addition, the “predicted increase in the NFV brain:plasma concentration ratio at the human BBB” value in the data set with P-gp at the human BBB [5] (CsA blood 2.8 µM, in vitro data scaled using rat in vivo data) is 555%. In data set [6] (at 120 min, Student's t-test), the “effect of CsA on pseudo steady-state plasma NFV concentration” value is listed as “did not significantly affect; also recorded: not significantly affected”. In data set [6] (i.v. bolus plus constant rate i.v. infusion), the “time to pseudo steady-state NFV plasma concentration” value is at most 30 min.
With `C/C=C/C[C@@H](C)C(=O)[C@H]1C(=O)N[C@@H](C(C)C)C(=O)N(C)CC(=O)N(C)[C@@H](CC(C)C)C(=O)N[C@@H](C(C)C)C(=O)N(C)[C@@H](CC(C)C)C(=O)N[C@@H](C)C(=O)N[C@H](C)C(=O)N(C)[C@@H](CC(C)C)C(=O)N(C)[C@@H](CC(C)C)C(=O)N(C)[C@@H](C(C)C)C(=O)N1C` [PSC833], the brain tumor volume entry in data set [7] is reported as “significant reduction in the brain tumor volume”.
With `CNC(=O)C(CCN1CCC(O)(c2ccc(Cl)cc2)CC1)(c1ccccc1)c1ccccc1` [dLop, N-desmethyl-loperamide], the “increase in distribution into the human brain” value in the data set on P-gp at the human BBB [8] is on record as at most 300%.
For the compound `CN(C)C(=O)C(CCN1CCC(O)(c2ccc(Cl)cc2)CC1)(c1ccccc1)c1ccccc1` [loperamide], the “increase in total loperamide-radioactivity uptake into the brain of rats” value at P-gp at the rat BBB [9] is reported as 588%. Besides, in the data set with P-gp [3], the “increase in brain distribution in mdr1a/b(−/−) vs. wild-type mice” value was 1200%. The “increase in brain distribution in the presence vs. absence of the P-gp inhibitor” value with P-gp [10] is reported as 1500%.
